Measurements reported in PubChem BioAssay AID330 (DTP/NCI, 2004).
Several values for one entry are separate records, joined by “and”; a condition that tells them apart may be missing. Equal values may be shown once. Inconclusive results and toxic doses are left out. How the source made its calls: active means survival T/C of 150% or more; inactive means T/C below 125% in these data.

Tested on: P388 leukemia ip, CD2F1 mice, survival T/C
Test: NCI In Vivo Anticancer Drug Screen. Data for tumor model P388 Leukemia (intraperitoneal) in CD2F1 (CDF1) mice
Details: endpoint: median survival time, higher = longer survival
Method in brief: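 Mice carrying the transplanted tumor received test compound or vehicle. Survival was recorded in each group, and the value is the treated-group measurement divided by that of the vehicle-treated control group.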

[1] = dose: 50.0 mg/kg/injection, schedule: Q01DX005 (ip), vehicle: saline with Tween-80
[2] = dose: 100.0 mg/kg/injection, schedule: Q01DX005 (ip), vehicle: saline with Tween-80
[3] = dose: 200.0 mg/kg/injection, schedule: Q01DX005 (ip), vehicle: saline with Tween-80
[4] = dose: 50.0 mg/kg/injection, schedule: Q01DX005 (ip), vehicle: Klucel (hydroxypropylcellulose) (HPC)
[5] = dose: 100.0 mg/kg/injection, schedule: Q01DX005 (ip), vehicle: Klucel (hydroxypropylcellulose) (HPC)
[6] = dose: 200.0 mg/kg/injection, schedule: Q01DX005 (ip), vehicle: Klucel (hydroxypropylcellulose) (HPC)
[7] = dose: 60.0 mg/kg/injection, schedule: Q01DX005 (ip), vehicle: Klucel (hydroxypropylcellulose) (HPC)
[8] = dose: 120.0 mg/kg/injection, schedule: Q01DX005 (ip), vehicle: Klucel (hydroxypropylcellulose) (HPC)
[9] = dose: 240.0 mg/kg/injection, schedule: Q01DX005 (ip), vehicle: Klucel (hydroxypropylcellulose) (HPC)
[10] = dose: 100.0 mg/kg/injection, schedule: Q01DX009 (ip), vehicle: saline with Tween-80
[11] = dose: 200.0 mg/kg/injection, schedule: Q01DX009 (ip), vehicle: saline with Tween-80
[12] = dose: 400.0 mg/kg/injection, schedule: Q01DX009 (ip), vehicle: saline with Tween-80
[13] = dose: 100.0 mg/kg/injection, schedule: Q01DX001 (ip), vehicle: Klucel (hydroxypropylcellulose) (HPC)
[14] = dose: 200.0 mg/kg/injection, schedule: Q01DX001 (ip), vehicle: Klucel (hydroxypropylcellulose) (HPC)
[15] = dose: 400.0 mg/kg/injection, schedule: Q01DX001 (ip), vehicle: Klucel (hydroxypropylcellulose) (HPC)
[16] = dose: 50.0 mg/kg/injection, schedule: Q01DX009 (ip), vehicle: saline with Tween-80
[17] = dose: 60.0 mg/kg/injection, schedule: Q01DX005 (ip), vehicle: saline
[18] = dose: 120.0 mg/kg/injection, schedule: Q01DX005 (ip), vehicle: saline
[19] = dose: 240.0 mg/kg/injection, schedule: Q01DX005 (ip), vehicle: saline
[20] = dose: 50.0 mg/kg/injection, schedule: Q01DX009 (ip), vehicle: saline

Measured: T/C

COc1ccc(CCNC(=O)c2ccc(CSc3ccc(Cl)cc3)o2)cc1OC
inactive: [1] 105 % of control | [2] 100 % of control | [3] 93 % of control

C[n+]1c(/C=C2/SC=C(c3ccccc3)S2)ccc2ccccc21
inactive: dose: 0.78 mg/kg/injection, schedule: Q04DX002 (ip), vehicle: saline with Tween-80 102 % of control and 119 % of control | dose: 1.56 mg/kg/injection, schedule: Q04DX002 (ip), vehicle: saline with Tween-80 109 % of control and 123 % of control | dose: 3.12 mg/kg/injection, schedule: Q04DX002 (ip), vehicle: saline with Tween-80 119 % of control

O=C(c1ccccc1[N+](=O)[O-])C1OC1c1ccccc1 (stereo not given)
inactive: [4] 102 % of control | [5] 99 % of control | [6] 96 % of control

Cc1ccc(-c2nc(N)sc2N=Nc2ccc(Cl)cc2Cl)cc1
inactive: [7] 96 % of control | [8] 96 % of control | [9] 97 % of control

CC(C)C1=CC23CCC4C(C)(C(=O)O)CCCC4(C)C2CC1C(C(=O)NCCCN(C)C)C3C(=O)O (stereo not given)
inactive: [7] 95 % of control | [8] 95 % of control | [9] 93 % of control

Nc1nc(N)nc(NC(=O)COc2cc(Cl)c(Cl)cc2Cl)n1
inactive: [10] 95 % of control | [11] 90 % of control | [12] 100 % of control

CCOC(=O)Nc1nc2ccccc2n1CN1CCCC1
inactive: dose: 25.0 mg/kg/injection, schedule: Q01DX005 (ip), vehicle: Klucel (hydroxypropylcellulose) (HPC) 112 % of control | [4] 111 % of control | [5] 114 % of control | [6] 117 % of control

C=CCC1=C(CC)C(=O)c2ccccc2C1=O
inactive: [4] 100 % of control | [5] 100 % of control | [6] 111 % of control

COc1cc(CC(=O)NCCc2ccsc2)c(CO)cc1OCc1ccccc1
inactive: [13] 99 % of control | [14] 101 % of control | [15] 101 % of control

COc1cc(OCc2ccccc2)c(O)cc1-c1coc2cc(OCc3ccccc3)ccc2c1=O
inactive: [13] 96 % of control | [14] 100 % of control | [15] 94 % of control

O=C(c1ccccc1)N1C=CN(C(=O)c2ccccc2)C1c1nccn1C(=O)c1ccccc1
inactive: [16] 105 % of control | [10] 96 % of control | [11] 91 % of control

O=C1CN(C(=O)Nc2ccc(Cl)c(Cl)c2)C(=S)N1
inactive: dose: 6.25 mg/kg/injection, schedule: Q01DX009 (ip), vehicle: Klucel (hydroxypropylcellulose) (HPC) 88 % of control | dose: 12.5 mg/kg/injection, schedule: Q01DX009 (ip), vehicle: Klucel (hydroxypropylcellulose) (HPC) 101 % of control | dose: 25.0 mg/kg/injection, schedule: Q01DX009 (ip), vehicle: Klucel (hydroxypropylcellulose) (HPC) 103 % of control and 90 % of control

CCOC(=O)C1=C(c2ccccc2)C2OC1C(COC(=O)NC)=C2COC(=O)NC (stereo not given)
inactive: dose: 12.5 mg/kg/injection, schedule: Q01DX009 (ip), vehicle: distilled water + Tween-80 96 % of control | dose: 25.0 mg/kg/injection, schedule: Q01DX009 (ip), vehicle: distilled water + Tween-80 93 % of control | dose: 50.0 mg/kg/injection, schedule: Q01DX009 (ip), vehicle: distilled water + Tween-80 87 % of control | dose: 100.0 mg/kg/injection, schedule: Q01DX009 (ip), vehicle: distilled water + Tween-80 87 % of control | dose: 200.0 mg/kg/injection, schedule: Q01DX009 (ip), vehicle: distilled water + Tween-80 99 % of control

O=C(NCCF)Oc1cc(Cl)c(Cl)cc1Cl
inactive: dose: 6.25 mg/kg/injection, schedule: Q01DX005 (ip), vehicle: Klucel (hydroxypropylcellulose) (HPC) 106 % of control | dose: 12.5 mg/kg/injection, schedule: Q01DX005 (ip), vehicle: Klucel (hydroxypropylcellulose) (HPC) 107 % of control and 120 % of control

Nc1nnc2nc(CC(=O)c3ccc(F)cc3)c(CC(=O)c3ccc(F)cc3)nn12
inactive: [17] 104 % of control | [18] 106 % of control | [19] 100 % of control

CCCCCCCCCCCCCCCCNCCCS(=O)(=O)O
inactive: dose: 6.25 mg/kg/injection, schedule: Q01DX009 (ip), vehicle: saline with Tween-80 96 % of control | dose: 6.25 mg/kg/injection, schedule: Q01DX009 (ip), vehicle: saline 103 % of control | dose: 12.5 mg/kg/injection, schedule: Q01DX009 (ip), vehicle: saline with Tween-80 107 % of control | dose: 12.5 mg/kg/injection, schedule: Q01DX009 (ip), vehicle: saline 100 % of control | dose: 25.0 mg/kg/injection, schedule: Q01DX009 (ip), vehicle: saline 100 % of control | [16] 103 % of control | [20] 103 % of control

CNC(=O)C1CCCN1C(=O)C(Cl)Cl (stereo not given)
inactive: [20] 96 % of control | dose: 100.0 mg/kg/injection, schedule: Q01DX009 (ip), vehicle: saline 93 % of control and 96 % of control | dose: 200.0 mg/kg/injection, schedule: Q01DX009 (ip), vehicle: saline 86 % of control and 92 % of control

COC(=O)C1=C(C(=O)OC)P2(C)(C)N(C)C(=S)N2C1(c1ccccc1)c1ccccc1
inactive: [4] 102 % of control | [5] 94 % of control | [6] 94 % of control

OCC1(c2ccncc2)OCCO1
inactive: dose: 50.0 mg/kg/injection, schedule: Q01DX005 (ip), vehicle: saline 101 % of control | dose: 100.0 mg/kg/injection, schedule: Q01DX005 (ip), vehicle: saline 104 % of control | dose: 200.0 mg/kg/injection, schedule: Q01DX005 (ip), vehicle: saline 92 % of control

CC1CN(C(=S)NNC(C)c2cc3ccccc3cn2)CC(C)O1 (stereo not given)
inactive: dose: 12.5 mg/kg/injection, schedule: Q01DX005 (ip), vehicle: saline with Tween-80 97 % of control | dose: 25.0 mg/kg/injection, schedule: Q01DX005 (ip), vehicle: saline with Tween-80 112 % of control

CCN(CCO)CCc1cccc2ccccc12
inactive: [4] 104 % of control | [5] 99 % of control

COc1ccc(C2c3cc4c(cc3OC3(N5CCCC5)CCCCC23)OCO4)c(OC)c1 (stereo not given)
inactive: [7] 87 % of control | [8] 90 % of control | [9] 91 % of control

CC(C)C1=CCC2C(=C1)CCC1C(C)(C(N)=O)CCCC21C (stereo not given)
inactive: dose: 100.0 mg/kg/injection, schedule: Q01DX001 (ip), vehicle: saline with Tween-80 100 % of control | dose: 200.0 mg/kg/injection, schedule: Q01DX001 (ip), vehicle: saline with Tween-80 100 % of control | dose: 400.0 mg/kg/injection, schedule: Q01DX001 (ip), vehicle: saline with Tween-80 100 % of control

COc1ccc2cc1Oc1ccc(cc1)C[C@@H]1c3cc(c(OC)cc3CCN1C)Oc1c(OC)c(OC)cc3c1[C@H](C2)N(C)CC3
inactive: dose: 25.0 mg/kg/injection, schedule: Q04DX002 (ip), vehicle: suspension in saline 99 % of control | dose: 50.0 mg/kg/injection, schedule: Q04DX002 (ip), vehicle: suspension in saline 100 % of control | dose: 100.0 mg/kg/injection, schedule: Q04DX002 (ip), vehicle: suspension in saline 100 % of control | dose: 200.0 mg/kg/injection, schedule: Q04DX002 (ip), vehicle: suspension in saline 93 % of control

c1ccc(CSc2ncnc3nc[nH]c23)cc1
inactive: dose: 12.5 mg/kg/injection, schedule: Q01DX010 (ip), vehicle: saline 100 % of control | dose: 25.0 mg/kg/injection, schedule: Q01DX010 (ip), vehicle: saline 100 % of control | dose: 50.0 mg/kg/injection, schedule: Q01DX010 (ip), vehicle: saline 90 % of control | dose: 100.0 mg/kg/injection, schedule: Q01DX010 (ip), vehicle: saline 90 % of control

CCOP(=O)(OCC)C(=O)c1ccccc1
inactive: [17] 100 % of control | [18] 103 % of control | [19] 105 % of control

C=CCN1C(=O)CCN(S(=O)(=O)c2ccc(-n3nc(C(=O)O)cc3C)cc2)C1=S
inactive: [1] 103 % of control | [2] 107 % of control | [3] 99 % of control

Cc1ccc(C(=O)C2CC(Br)C(Br)CC2C(=O)c2ccc(C)cc2)cc1 (stereo not given)
inactive: [10] 91 % of control | [11] 91 % of control | [12] 87 % of control
